Test results from US20160235749A1, “MICRO-PARTICULATED NANOCAPSULES CONTAINING LOPINAVIR WITH ENHANCED ORAL BIOAVAILABILITY AND EFFICACY” (priority 2015, published 2016).
In brackets after ≈: the same amount, converted by molar mass. Where two headings read alike, the source gives them in different places.

Key:
[1] = Pharmacokinetic studies in rats (LPV plasma levels by LC-MS/MS); assay type: in vivo; settings: male, Sprague-Dawley, rat, oral, 10 mg/kg, read-out: absolute bioavailability compared to i.v. LPV solution
[2] = LPV solubility test in 0.1% Tween 80; assay type: physicochemical; settings: 0.1% Tween 80 solution, aqueous with cosolvent or surfactant or cyclodextrin, thermodynamic from solid; 0.1% Tween 80, pH 7.4, 37° C., 3 h incubation
Experimental: A solubility test was performed prior to the in-vitro release profile experiment to ensure that sink conditions would prevail by adding 10 mg LPV to 10 ml of 0.1% Tween 80 pre-warmed to 37° C. in a beaker. The pH was adjusted to 7.4 and the Tween solution was kept at 37° C. and rotated at 150 rpm for 3 h. Then, 5 ml aliquots were taken and filtered using a 0.45 μm PVDF filter and diluted with methanol to a final dilution factor of 10.

[3] = Pharmacokinetic studies in rats (LPV plasma levels by LC-MS/MS); assay type: in vivo; settings: male, Sprague-Dawley, rat
Experimental: Sprague-Dawley male rats weighing 270-300 g were used and were separated randomly into seven groups with 4-8 animals per group to evaluate the biofate of LPV in different formulations. The animals were housed in SPF conditions, fasted overnight (12-14 h prior to the experiment) with free access to water. The animals were given a dose of 10 mg/kg LPV with or without RTV, always at the same ratio as the Kaletra® administered orally, using gavage. The groups were orally administered according to the following experimental conditions: 1 ml of Kaletra® oral solution (LPV 80 mg/RTV 20 mg/ml) prepared by diluting the purchased commercial solution with 1:1:1 ethanol:propylene glycol:DDW to a concentration of LPV 3 mg/RTV 0.75 mg/ml; and microparticulate formulations, F[I]-F[III] prepared by dispersing the NCs embedded in MCPs in DDW to the final concentration of 40 mg/ml. Blood samples (400-500 μl) were withdrawn from the tail vein at 0, 0.5, 1, 2, 4, 8, 12 and 24 h. Saline solution was given to the animals after 30 min and then again after 3 h. The blood samples were collected in heparin containing tubes. The samples were immediately centrifuged at 10,000 rpm for 5 min, after which 200-300 μl of plasma samples were transferred to new tubes and stored at −80° C. until further analysis by LC-MS/MS as described below.
The blood samples were treated by protein precipitation in methanol, following 15 min centrifuge at 10,000 rpm. 25 ng of quinoxaline (QX) dissolved in methanol were added to each sample, as an internal standard. The supernatant layer was collected and the samples were injected into an LC-MS/MS device under the following conditions: using a Phenomenex Kenetex column (RP-C18, 50×2.1 mm, 2.6 μm, 100 A) in gradient mode; the mobile phase consisted of A=methanol/formic acid 99.9/0.1 and B=water/formic acid 99.9/0.1; the A:B ratio was 58:42 at t=0 min, during the first 1.5 min the ratio changed gradually to A:B 80:20 and remained steady until 2.1 min. […] The flow rate was maintained at 0.35 ml/min, and the column temperature was maintained at 35° C. LC-MS/MS analysis was performed with a thermo scientific Accela HPLC system coupled with a TSQ Quantum Access MAX detector in positive ionization mode. Detection and quantification were carried out by multiple-reaction monitoring with transitions from m/z 629.3 to 156 for LPV and from m/z 313.1 to 246 for QX. The tested samples were quantified against a calibration curve in the range of 0-100 ng/ml.
The change in LPV plasma concentrations following intravenous (i.v.) administration of LPV alone and combined with RTV in an aqueous solution and the pharmacokinetic (PK) profile of LPV following oral administration of various formulations is depicted in FIG. 10. […] The absolute bioavailability (F) of LPV at all dosage forms was calculated relative to the AUC (area under the curve) yielded by i.v. administration of LPV and RTV at the ratio of 4:1 (F=1.0) since the same combination of LPV and RTV, when administered orally, is considered the standard of PI care for HIV-linfected patients.

[4] = LPV in-vitro release profile experiment; assay type: physicochemical; settings: 0.1% Tween 80 release medium
Experimental: LPV in-vitro release kinetic experiments were carried out using the apparatus (VanKel VK7000 with a VK […] pump) comprised of six vessels containing 300 ml of 0.1% Tween 80 at 37° C. with USP paddles rotating at a speed of 50 rpm. The three formulations (F[I]-F[III]) were added to the different vessels at a LPV quantity equivalent to maintain sink conditions (10% of the pre-determined solubility). […] The samples were filtered using 0.45 μm PVDF filter and 500 μl from the filtrate was diluted in 500 μl methanol. These samples were comprised of free and encapsulated LPV, since LPV NCs diameter size is about 200 nm and the NCs can diffuse via 0.45 μm membrane pores. The remaining filtrate was then transferred to diafiltration membrane vivaspin 6 (MWCO 300,000 purchased from Sartorius Stedim Biotech) and centrifuged for 15 min at 4000 rpm. […] All samples were analyzed using HPLC. […] The graphs display both the total amount of LPV released from the MCPs, as free dissolved molecules and the LPV molecules still entrapped in the NCs, as detected following filtration of the dissolution samples through 0.45 μm PVDF filters (dimond-shaped points), as well as the free dissolved LPV molecules fraction only, as detected following a second filtration using 300,000 MW cut off vivaspin membranes which retained the NCs (square points). […]

[5] = plasma, rats, oral, 10 mg/kg LPV

- bioavailability [1]: 24%
- solubility at 3 h [2]: 72.7 µg/mL (≈ 116 µM)
- decrease in Cmax compared to Kaletra® oral solution ([3]; in vivo, po): 3 fold
- AUC ([3]; plasma, iv, rats, 10 mg/kg LPV): 8000 ± 1220 ng·h/mL
- clearance ([3]; plasma, iv, rats, 10 mg/kg LPV): 21.1 mL/min/kg
- half-life ([3]; plasma, iv, rats, 10 mg/kg LPV): 1.2 ± 0.2 h
- Cmax ([3]; plasma, iv, rats, i.v., 10 mg/kg LPV, read-out: Cmax (extrapolated plasma concentration at T0)): 2780 ± 203 ng/mL
- bioavailability ([3]; plasma, oral, 10 mg/kg, rats, oral, read-out: absolute bioavailability compared to LPV:RTV 4:1 i.v.): 5%
- AUC [3, 5]: 1910 ± 324 ng·h/mL
- half-life [3, 5]: 4.8 ± 0.9 h
- Cmax ([3]; plasma, rats, oral, 10 mg/kg LPV, read-out: Cmax): 780 ± 246 ng/mL
Structure (SMILES): Cc1cccc(C)c1OCC(=O)N[C@@H](Cc1ccccc1)[C@@H](O)C[C@H](Cc1ccccc1)NC(=O)[C@H](C(C)C)N1CCCNC1=O [LPV, (2S)—N-[(2S,4S,5S)-5-[2-(2,6-dimethylphenoxy)acetamido]-4-hydroxy-1,6-diphenylhexan-2-yl]-3-methyl-2-(2-oxo-1,3-diazinan-1-yl)butanamide]
- LPV solubility at pH 1.2 [4]: low solubility below HPLC detection limit
